Results taken from patent publication US20150320705A1, “METHOD OF INHIBITING OR TREATING AMYOTROPHIC LATERAL SCLEROSIS WITH PHENOXYALKYLCARBOXYLIC ACIDS” (priority 2014, published 2015).

Columns and labels:
[1] = system: VAPB Drosophila mutants; test: Evaluation of anti-ALS activity on VAPB Drosophila mutants (viability); assay type: in vivo; conditions: VAPB mutant flies; for adult flies observed from seeded larvae: 3 replicates for riluzole and vitamin D (45 larvae seeded), 8 for MN-001 (120 larvae seeded)
[2] = system: SOD deficient flies; assay type: in vivo, Drosophila; conditions: flies with interfered SOD gene, MN-001 tested at 0.08 mM, 0.8 mM, 8 mM (DMSO), FIG. 3
Procedure: Drosophila males will be collected and keep on fly food for 24 h. Then flies will be transferred to vials containing 3-mm paper filter disks saturated with 250 μl of 1% sucrose containing 2 mM paraquat or 1% sucrose, 2 mM paraquat and the tested compound. The vials will be stored at 25° C. in the dark, and flies are enumerated after 24 h.
Three replicas for each concentration will be performed in the same day and three replicas of the assay will be performed in different days.
The experiment includes the analysis of four compound concentrations (10, 100, 250 and 1000 μM) and will evaluate 360 flies for each concentration (8 replicates×3 days with 15 flies each one). Resistance to paraquat treatment will be indicative of positive activity of the compound tested. See, FIG. 2.
MN-001 was tested at concentrations of 0.08 mM, 0.8 mM, 8 mM (DMSO).

| Compound | adult flies observed from seeded larvae [1] | viability ([1]; compared with DMSO) | survival (or survivorship) percentages after paraquat exposure [2] |
| --- | --- | --- | --- |
| vitamin D | 1 adult was observed in one of the 3 replicates |  |  |
| CCCc1c(SCCCOc2ccc(C(C)=O)c(OCCCC(=O)O)c2CCC)ccc(C(C)=O)c1O [MN-001] | 5 of 8 wells displayed adults but only 1 adult in each of them | increase viability in a statistically significant manner | increased this survival in a dose dependent manner |
| vitamin E |  |  | increased this percentage |
| Nc1nc2ccc(OC(F)(F)F)cc2s1 [riluzole] | No adult flies were observed |  |  |
